Read-outs that look alike come from different tables or passages of the source.
Columns and labels:
[1] = tested on: S. aureus MSSA-7 producing penicillinase PC-1; assay: broth microdilution MIC, S. aureus PC-1; format: cell-based; conditions: for MIC of exemplary compounds in presence of fixed β-lactams, S. aureus MSSA-7 PC-1: Fixed Pip (piperacillin) 4 μg/mL
Description: (§1) To determine the ability of test compounds to potentiate the inhibition of the growth of bacterial strains that produce beta-lactamase enzymes, classic cell based broth microdilution MIC assays were employed. Six bacteria strains producing beta-lactamase enzymes were used: E. coli expressing the Class A Extended Spectrum Beta-Lactamase (ESBL) CTX-M-15, E. cloacae expressing the Class C P99, K. pneumoniae expressing the Class A carbapenemase KPC-3, P. aeruginosa expressing the Class B carbapenemase VIM-2, K pneumoniae expressing the class A carbapenemase KPC-2 and the class B carbapenemase VIM-4, and S. aureus producing the Class A penicillinase PC-1. The assay was conducted in Cation Adjusted Mueller Hinton Broth (CAMHB, BD #212322, BD Diagnostic Systems, Sparks, Md.). Bacteria strains were grown for 3-5 hours in CAMBH broth. Test compounds were added to a microtiter plate in 2-fold serial dilutions in CAMHB in a final concentration range of 32 μg/mL to 0.25 μg/ml. An overlay of CAMHB containing a Beta-lactam was added to the compounds at a final static concentration of 4 μg/ml. […] In addition to the titration of test compounds the MICs of a panel of control beta-lactams is also tested to ensure the strains are behaving consistently from test to test. Once the test compound and antibiotics are added the plates can be inoculated according to CLSI broth microdilution method. After inoculation the plates are incubated for 16-20 hours at 37° C., then the Minimal Inhibitory Concentration (MIC) of the test compound is determined visually.
(§2) Using the methodology described above, examples of the current invention were evaluated for their ability to inhibit the growth of β-lactamase-producing bacteria in the presence of a β-lactam antibiotic.
(§3) Representative results are shown in Table 4 where A represents an MIC of the fixed β-lactam antibiotic in the presence of >32 µg/mL of a β-lactamase inhibitor of exemplary compounds, B represents the MIC in the presence of between 8 and 32 µg/mL of a β-lactamase inhibitor of exemplary compounds, and C represents the MIC in the presence of ≤4 µg/mL of a β-lactamase inhibitor of exemplary compounds. NT=Not Tested.

KPC-2 β-lactamase = molecular target: T1, KPC-2 β-lactamase (Klebsiella pneumoniae, UniProt Q9F663); assay: β-lactamase enzyme inhibition, KPC-2; format: biochemical
T1 construct: made in house; host or cells: E. coli BL21(DE3)
T1 sequence (Q9F663 25-293, looked up): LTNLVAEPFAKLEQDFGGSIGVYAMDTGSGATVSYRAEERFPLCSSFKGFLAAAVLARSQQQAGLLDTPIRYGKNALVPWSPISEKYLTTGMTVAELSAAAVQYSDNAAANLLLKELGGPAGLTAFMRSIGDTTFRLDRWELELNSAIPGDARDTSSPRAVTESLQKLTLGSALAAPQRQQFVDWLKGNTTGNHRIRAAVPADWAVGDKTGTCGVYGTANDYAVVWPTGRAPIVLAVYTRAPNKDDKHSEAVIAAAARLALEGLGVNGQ
How it was run: (§4)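 IC50 was the inhibitor concentration halving the initial hydrolysis rate versus no-inhibitor wells, following a 15 min 37° C. enzyme–inhibitor preincubation. Substrates: imipenem read at 300 nm for KPC-2, cefotaxime at 260 nm for SHV-5, and nitrocefin (100 μM final) at 486 nm for OXA-1 and p99 AmpC. Enzymes were recombinant untagged proteins from E. coli BL21(DE3).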

[2] = tested on: P. aeruginosa Ps296 expressing VIM-2; assay: broth microdilution MIC, P. aeruginosa VIM-2; format: cell-based; conditions: for MIC of exemplary compounds in presence of fixed β-lactams, P. aerug. Ps296 VIM-2: Fixed Mero (meropenem) 4 μg/mL
Description: as §1, §2, §3

[3] = molecular target: T2, VIM-2 metallo β-lactamase (Pseudomonas aeruginosa, UniProt Q9K2N0); assay: β-lactamase enzyme inhibition, VIM-2; format: biochemical; conditions: Nitrocefin 100 μM, 486 nm; 15 min at 37° C. preincubation; read-out: IC50 VIM-2 (Class B)
T2 construct: made in house; host or cells: E. coli BL21(DE3)
How it was run: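 Inhibitor and enzyme sat together 15 min at 37° C before 100 μM nitrocefin (final) was added and 486 nm absorbance read for 10 min. IC50 is the concentration halving initial hydrolysis rate relative to uninhibited wells. Protein came from Q sepharose anion exchange at pH 7.5, repeated to >90% purity.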

[4] = tested on: E. cloacae 144200 expressing Class C P99 AmpC; assay: broth microdilution MIC, E. cloacae P99; format: cell-based; conditions: Fixed CAZ (ceftazidime) 4 μg/mL
How it was run: (§5)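 First, strains were grown 3-5 hours in CAMHB; then compound dilutions (32 to 0.25 μg/mL final) received a beta-lactam overlay at 4 μg/mL final. Finally, plates were inoculated per CLSI and incubated 16-20 hours at 37° C.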

OXA-1 β-lactamase = molecular target: T3, OXA-1 β-lactamase (Escherichia coli, UniProt P13661); assay: β-lactamase enzyme inhibition, OXA-1; format: biochemical; conditions: Nitrocefin 100 μM, 486 nm; 15 min at 37° C. preincubation; read-out: IC50 OXA-1 (Class D)
T3 construct: made in house; host or cells: E. coli BL21(DE3)
T3 sequence (P13661 26-276): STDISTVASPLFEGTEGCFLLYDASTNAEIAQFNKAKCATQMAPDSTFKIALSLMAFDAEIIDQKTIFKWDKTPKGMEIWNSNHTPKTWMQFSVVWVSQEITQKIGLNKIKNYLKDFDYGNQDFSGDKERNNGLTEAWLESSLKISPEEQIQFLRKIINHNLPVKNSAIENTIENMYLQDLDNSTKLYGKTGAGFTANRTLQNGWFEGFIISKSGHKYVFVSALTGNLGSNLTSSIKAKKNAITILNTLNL
How it was run: as §4

[5] = tested on: E. coli ESBL4 expressing CTX-M-15; assay: broth microdilution MIC, E. coli CTX-M-15; format: cell-based; conditions: Fixed CAZ (ceftazidime) 4 μg/mL
How it was run: as §5

[6] = tested on: K. pneumoniae 156319 expressing KPC-3; assay: broth microdilution MIC, K. pneumoniae KPC-3; format: cell-based; conditions: for MIC of exemplary compounds in presence of fixed β-lactams, K.P. 156319 KPC-3: Fixed Mero (meropenem) 4 μg/mL
How it was run: as §5

[7] = tested on: K. pneumoniae A-1797 expressing KPC-2 and VIM-4; assay: broth microdilution MIC, K. pneumoniae KPC-2 and VIM-4; format: cell-based; conditions: for MIC of exemplary compounds in presence of fixed β-lactams, K.P. A-1797 KPC-2 VIM-4: Fixed Mero (meropenem) 4 μg/mL
How it was run: as §5

p99 AmpC β-lactamase = molecular target: T4, p99 AmpC β-lactamase (Enterobacter cloacae, UniProt P05364); assay: β-lactamase enzyme inhibition, p99 AmpC; format: biochemical
T4 construct: made in house; host or cells: E. coli BL21(DE3)
T4 sequence (P05364 21-381): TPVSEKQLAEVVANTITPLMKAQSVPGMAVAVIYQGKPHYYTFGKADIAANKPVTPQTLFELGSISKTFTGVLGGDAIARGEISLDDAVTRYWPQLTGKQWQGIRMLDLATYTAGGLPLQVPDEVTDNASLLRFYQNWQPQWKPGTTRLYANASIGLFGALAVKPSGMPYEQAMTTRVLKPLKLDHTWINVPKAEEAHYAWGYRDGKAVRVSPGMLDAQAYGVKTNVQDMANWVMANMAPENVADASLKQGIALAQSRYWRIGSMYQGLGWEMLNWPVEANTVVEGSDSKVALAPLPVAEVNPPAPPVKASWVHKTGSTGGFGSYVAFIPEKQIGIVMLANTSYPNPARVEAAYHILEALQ
How it was run: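 Inhibitor and enzyme were incubated 15 min at 37°C first. The enzyme was recombinant p99 AmpC, untagged, from E. coli BL21(DE3), purified by ion-exchange and size-exclusion chromatography.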

SHV-5 β-lactamase = molecular target: T5, SHV-5 β-lactamase (Klebsiella pneumoniae, UniProt P0A3M1); assay: β-lactamase enzyme inhibition, SHV-5; format: biochemical
T5 construct: made in house; host or cells: E. coli BL21(DE3)
T5 sequence (P0A3M1 22-286): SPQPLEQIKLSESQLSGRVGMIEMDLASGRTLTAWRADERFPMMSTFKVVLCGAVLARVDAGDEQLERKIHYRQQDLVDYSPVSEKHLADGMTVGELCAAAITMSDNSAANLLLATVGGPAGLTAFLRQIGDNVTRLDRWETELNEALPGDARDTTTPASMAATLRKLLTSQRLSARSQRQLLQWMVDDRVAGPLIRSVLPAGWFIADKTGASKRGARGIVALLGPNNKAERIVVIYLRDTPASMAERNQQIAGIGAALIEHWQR
How it was run: as §4

[8] = imipenem substrate, 300 nm, 15 min at 37° C. preincubation, read-out: IC50 KPC-2 (Class A)
[9] = Klebsiella pneumoniae, read-out: MIC alone

Row | MIC alone ([1]; partner antibiotic alone, S. aureus producing PC-1) [µg/mL] | SMILES | MIC of exemplary compounds in presence of fixed β-lactams, S. aureus MSSA-7 PC-1 [1] | IC50 (KPC-2 β-lactamase; [8]) [nM] | MIC of exemplary compounds in presence of fixed β-lactams, P. aerug. Ps296 VIM-2 [2] | IC50 [3] [µM] | MIC of exemplary compounds in presence of fixed β-lactams, E. cl. 144200 p99 AmpC [4] | IC50 (OXA-1 β-lactamase) [nM] | MIC of exemplary compounds in presence of fixed β-lactams, E. coli ESBL4 CTX-M-15 [5] | MIC of exemplary compounds in presence of fixed β-lactams, K.P. 156319 KPC-3 [6] | MIC of exemplary compounds in presence of fixed β-lactams, K.P. A-1797 KPC-2 VIM-4 [7] | IC50 (p99 AmpC β-lactamase) [nM] | IC50 (SHV-5 β-lactamase) [nM] | MIC alone ([2]; partner antibiotic alone, P. aeruginosa expressing VIM-2) [µg/mL] | MIC [6, 9] [µg/mL] | MIC [7, 9] [µg/mL] | IC50 (KPC-2 β-lactamase) [nM]
1 | – | CNC(=O)CCC(=O)N[C@H]1Cc2cccc(C(=O)O)c2OB1O [Example 19, (R)-2-Hydroxy-3-(3-methylcarbamoyl-propionylamino)-3,4-dihydro-2H-benzo[e][1,2]oxaborinine-8-carboxylic acid] | B (B represents the MIC in the presence of between 8 and 32 g/mL of a β-lactamase inhibitor) | < 100 | A (A represents an MIC of the fixed β-lactam antibiotic in the presence of >32 g/mL of a β-lactamase inhibitor) | 1 to 10 | C (C represents the MIC in the presence of ≤4 g/mL of a β-lactamase inhibitor) | < 100 | C (C represents the MIC in the presence of ≤4 g/mL of a β-lactamase inhibitor) | C (C represents the MIC in the presence of ≤4 g/mL of a β-lactamase inhibitor) | B (B represents the MIC in the presence of between 8 and 32 g/mL of a β-lactamase inhibitor) | < 100 | < 100 | – | – | – | –
2 | 64 | CCN1CCN(C(=O)N[C@@H](C(=O)N[C@@H]2C(=O)N3[C@@H]2SC(C)(C)[C@@H]3C(=O)O)c2ccccc2)C(=O)C1=O [Piperacillin, piperacillin, reference compound] | – | – | – | – | – | – | – | – | – | – | – | – | – | – | –
3 | – | C[C@@H](O)[C@H]1C(=O)N2C(C(=O)O)=C(S[C@@H]3CN[C@H](C(=O)N(C)C)C3)[C@H](C)[C@H]12 [Meropenem, meropenem, reference compound] | – | – | – | – | – | – | – | – | – | – | – | 16 | > 128 | 64 | –
4 | – | O=C(CCC(F)(F)F)N[C@H]1Cc2cccc(C(=O)O)c2OB1O [Example 7, (R)-2-Hydroxy-3-(4,4,4-trifluoro-butyrylamino)-3,4-dihydro-2H-benzo[e][1,2]oxaborinine-8-carboxylic acid] | – | – | B (B represents the MIC in the presence of between 8 and 32 g/mL of a β-lactamase inhibitor) | 1 to 10 | C (C represents the MIC in the presence of ≤4 g/mL of a β-lactamase inhibitor) | < 100 | C (C represents the MIC in the presence of ≤4 g/mL of a β-lactamase inhibitor) | C (C represents the MIC in the presence of ≤4 g/mL of a β-lactamase inhibitor) | A (A represents an MIC of the fixed β-lactam antibiotic in the presence of >32 g/mL of a β-lactamase inhibitor) | < 100 | < 100 | – | – | – | < 100
5 | – | CC(=O)CC(=O)CCC(=O)N[C@H]1Cc2cccc(C(=O)O)c2OB1O [Example 41, (R)-3-(4,6-Dioxo-heptanoylamino)-2-hydroxy-3,4-dihydro-2H-benzo[e][1,2]oxaborinine-8-carboxylic acid] | – | 100 to 1000 | – | < 0.1 | C (C represents the MIC in the presence of ≤4 g/mL of a β-lactamase inhibitor) | < 100 | C (C represents the MIC in the presence of ≤4 g/mL of a β-lactamase inhibitor) | B (B represents the MIC in the presence of between 8 and 32 g/mL of a β-lactamase inhibitor) | C (C represents the MIC in the presence of ≤4 g/mL of a β-lactamase inhibitor) | < 100 | < 100 | – | – | – | –
6 | – | CCC(=O)N[C@H]1Cc2cccc(C(=O)O)c2OB1O [Example 62, (R)-2-Hydroxy-3-propionylamino-3,4-dihydro-2H-benzo[e][1,2]oxaborinine-8-carboxylic acid] | C (C represents the MIC in the presence of ≤4 g/mL of a β-lactamase inhibitor) | – | B (B represents the MIC in the presence of between 8 and 32 g/mL of a β-lactamase inhibitor) | 1 to 10 | C (C represents the MIC in the presence of ≤4 g/mL of a β-lactamase inhibitor) | < 100 | C (C represents the MIC in the presence of ≤4 g/mL of a β-lactamase inhibitor) | C (C represents the MIC in the presence of ≤4 g/mL of a β-lactamase inhibitor) | B (B represents the MIC in the presence of between 8 and 32 g/mL of a β-lactamase inhibitor) | – | 100 to 1000 | – | – | – | < 100
7 | – | O=C(CC(C(F)(F)F)C(F)(F)F)N[C@H]1Cc2cccc(C(=O)O)c2OB1O [Example 9, (R)-2-Hydroxy-3-(4,4,4-trifluoro-3-trifluoromethyl-butyrylamino)-3,4-dihydro-2H-benzo[e][1,2]oxaborinine-8-carboxylicacid] | – | 100 to 1000 | A (A represents an MIC of the fixed β-lactam antibiotic in the presence of >32 g/mL of a β-lactamase inhibitor) | 10 to 100 | C (C represents the MIC in the presence of ≤4 g/mL of a β-lactamase inhibitor) | 100 to 1000 | B (B represents the MIC in the presence of between 8 and 32 g/mL of a β-lactamase inhibitor) | B (B represents the MIC in the presence of between 8 and 32 g/mL of a β-lactamase inhibitor) | A (A represents an MIC of the fixed β-lactam antibiotic in the presence of >32 g/mL of a β-lactamase inhibitor) | < 100 | < 100 | – | – | – | –

From patent publication US11008346B2, “Beta-lactamase inhibitors” (priority 2014, dated 2021)
